The text below walks through data of publication PMC3574204 (Bioorganic & medicinal chemistry, 2013).

The target of one series is VEGFR-2 (Homo sapiens, UniProt P35968). The series is described as follows: Phosphotyrosine ELISA cytoblot, VEGFR-2.
Series [1] concerns chicken embryo chorioallantoic membrane (CAM). The series is described as follows: CAM assay of angiogenesis. To be noted: in vivo.
Series [2] in a line: Whole animal toxicity assay. It counts as in vivo.
Another series addresses EGFR (Homo sapiens, UniProt P00533). As to the kind of experiment: Phosphotyrosine ELISA cytoblot, EGFR inhibition in A431 cells. Conditions: for EGFR inhibition improved, fold compared to the corresponding 2-amino analog: 14 vs 8, 15 vs 9, 17 vs 11.
Series [3] has as its system B16-F10 mouse melanoma tumors. As to the kind of experiment: B16-F10 syngeneic tumor model. It counts as in vivo, athymic NCr nu/nu male mice. Conditions: 10 mg/kg IP twice weekly.

EGFR, sequence (P00533 25-1210): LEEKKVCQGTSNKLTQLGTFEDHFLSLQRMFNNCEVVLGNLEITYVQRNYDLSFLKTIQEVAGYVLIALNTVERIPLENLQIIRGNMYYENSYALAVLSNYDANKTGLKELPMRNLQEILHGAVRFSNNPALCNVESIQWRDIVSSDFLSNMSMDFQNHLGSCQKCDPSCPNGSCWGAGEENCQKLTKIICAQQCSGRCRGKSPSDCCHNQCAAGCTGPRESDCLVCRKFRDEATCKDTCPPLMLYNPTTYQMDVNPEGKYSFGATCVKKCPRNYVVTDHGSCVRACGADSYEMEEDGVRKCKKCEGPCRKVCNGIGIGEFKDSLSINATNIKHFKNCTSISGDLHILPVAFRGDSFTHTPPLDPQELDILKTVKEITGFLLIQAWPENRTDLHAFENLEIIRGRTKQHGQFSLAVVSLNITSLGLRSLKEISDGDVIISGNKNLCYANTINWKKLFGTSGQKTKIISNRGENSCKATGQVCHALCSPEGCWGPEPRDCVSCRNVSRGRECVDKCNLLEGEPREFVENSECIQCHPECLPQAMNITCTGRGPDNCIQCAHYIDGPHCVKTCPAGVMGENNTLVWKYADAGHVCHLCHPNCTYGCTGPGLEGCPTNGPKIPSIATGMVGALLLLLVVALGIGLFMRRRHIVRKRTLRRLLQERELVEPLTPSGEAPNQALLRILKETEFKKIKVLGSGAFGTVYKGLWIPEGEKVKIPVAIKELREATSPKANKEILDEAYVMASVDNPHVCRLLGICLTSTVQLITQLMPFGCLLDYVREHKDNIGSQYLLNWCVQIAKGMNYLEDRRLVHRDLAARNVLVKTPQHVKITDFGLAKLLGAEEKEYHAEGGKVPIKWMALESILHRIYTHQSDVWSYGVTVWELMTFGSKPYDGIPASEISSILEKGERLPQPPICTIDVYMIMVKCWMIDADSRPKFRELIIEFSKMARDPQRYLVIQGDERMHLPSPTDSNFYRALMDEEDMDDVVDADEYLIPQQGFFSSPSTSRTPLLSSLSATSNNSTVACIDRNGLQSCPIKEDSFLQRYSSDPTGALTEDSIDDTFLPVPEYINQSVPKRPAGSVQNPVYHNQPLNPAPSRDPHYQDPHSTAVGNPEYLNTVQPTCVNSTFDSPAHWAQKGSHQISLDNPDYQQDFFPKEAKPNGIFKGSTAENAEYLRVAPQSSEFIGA
VEGFR-2, sequence (P35968 20-1356): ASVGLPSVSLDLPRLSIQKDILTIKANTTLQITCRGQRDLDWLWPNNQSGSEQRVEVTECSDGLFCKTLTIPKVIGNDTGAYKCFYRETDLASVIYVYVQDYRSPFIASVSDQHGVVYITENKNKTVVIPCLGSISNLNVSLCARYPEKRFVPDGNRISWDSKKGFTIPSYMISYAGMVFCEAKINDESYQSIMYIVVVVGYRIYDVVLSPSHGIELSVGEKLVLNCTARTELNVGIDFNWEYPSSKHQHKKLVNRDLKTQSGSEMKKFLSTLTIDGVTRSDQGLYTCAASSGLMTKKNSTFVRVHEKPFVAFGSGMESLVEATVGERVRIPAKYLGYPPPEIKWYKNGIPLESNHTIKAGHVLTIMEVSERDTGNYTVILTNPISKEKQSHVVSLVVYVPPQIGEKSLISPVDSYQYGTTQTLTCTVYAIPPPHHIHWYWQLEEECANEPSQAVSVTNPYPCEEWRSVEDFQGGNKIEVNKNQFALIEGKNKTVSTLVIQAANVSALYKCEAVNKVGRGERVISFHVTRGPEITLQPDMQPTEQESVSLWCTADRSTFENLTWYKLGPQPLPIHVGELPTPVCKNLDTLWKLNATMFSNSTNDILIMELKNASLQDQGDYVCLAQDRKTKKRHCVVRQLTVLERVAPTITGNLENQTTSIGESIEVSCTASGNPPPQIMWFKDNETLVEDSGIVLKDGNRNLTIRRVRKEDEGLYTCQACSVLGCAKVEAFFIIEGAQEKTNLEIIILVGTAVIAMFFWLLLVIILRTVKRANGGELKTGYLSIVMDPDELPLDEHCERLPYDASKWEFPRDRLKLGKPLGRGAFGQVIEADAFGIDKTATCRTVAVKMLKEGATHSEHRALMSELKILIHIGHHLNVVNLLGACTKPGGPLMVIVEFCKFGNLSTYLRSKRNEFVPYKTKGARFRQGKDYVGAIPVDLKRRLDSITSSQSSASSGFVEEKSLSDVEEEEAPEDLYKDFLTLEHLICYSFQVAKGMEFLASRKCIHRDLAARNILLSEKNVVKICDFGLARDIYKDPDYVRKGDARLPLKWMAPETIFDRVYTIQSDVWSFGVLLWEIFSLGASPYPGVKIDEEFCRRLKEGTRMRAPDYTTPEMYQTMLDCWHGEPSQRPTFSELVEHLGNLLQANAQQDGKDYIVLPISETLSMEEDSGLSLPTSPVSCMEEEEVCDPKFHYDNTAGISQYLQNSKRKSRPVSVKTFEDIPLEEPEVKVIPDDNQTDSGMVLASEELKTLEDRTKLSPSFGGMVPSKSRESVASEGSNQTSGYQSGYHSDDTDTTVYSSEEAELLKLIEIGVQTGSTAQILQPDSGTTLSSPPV

For the molecule `Nc1nc(Nc2ccc(F)c(Br)c2)c2cc(CCc3ccccn3)[nH]c2n1` [Compound 8, N^4-(3-bromo,4-fluorophenyl)-6-(2-pyridin-2-yl-ethyl)-7H-pyrrolo[2,3-d]pyrimidine-2,4-diamine], at VEGFR-2, the “VEGFR-2 inhibition, fold improvement in activity compared to 7” value is 2 fold. Besides, in series [1], the “CAM angiogenesis assay, fold better than semaxanib (27)” value is 1.2 fold. Further, the weight loss result is “no weight loss” in series [2] (7.5 or 10 mg/kg twice weekly, compared to untreated); “significant” in series [2] (20, 17, and 15 mg/kg twice weekly, 6 week time point).

Turning to `CC(C)(C)C(=O)Nc1nc(Nc2ccc(F)c(Br)c2)c2cc(CCc3ccccn3)[nH]c2n1` [Compound 14, N-{4-[(3-bromo,4-fluorophenyl)amino]-6-(2-pyridin-2-yl-ethyl)-7H-pyrrolo[2,3-d]pyrimidin-2-yl}the-2,2-dimethylpropanamide], the “EGFR inhibition improved, fold compared to the corresponding 2-amino analog” value at EGFR was found to be 16 fold.

For the molecule `CC(C)(C)C(=O)Nc1nc(Nc2ccc(F)c(Cl)c2)c2cc(CCc3ccccn3)[nH]c2n1` [Compound 15, N-{4-[(3-chloro,4-fluorophenyl)amino]-6-(2-pyridin-2-yl-ethyl)-7H-pyrrolo[2,3-d]pyrimidin-2-yl}-2,2-dimethylpropanamide], the “EGFR inhibition improved, fold compared to the corresponding 2-amino analog” value at EGFR is 6.5 fold.

Turning to `C#Cc1cccc(Nc2nc(NC(=O)C(C)(C)C)nc3[nH]c(CCc4ccccn4)cc23)c1` [Compound 16, N-{4-[(3-ethynylphenyl)amino]-6-(2-pyridin-2-yl-ethyl)-7H-pyrrolo[2,3-d]pyrimidin-2-yl}-2,2-dimethylpropanamide], the “EGFR inhibitory assay, result in words” value on EGFR was “inactive”.

On to `CC(C)(C)C(=O)Nc1nc(Nc2cccc(C(F)(F)F)c2)c2cc(CCc3ccccn3)[nH]c2n1` [Compound 17, N-{4-[(3-trifluoromethylphenyl)amino]-6-(2-pyridin-2-yl-ethyl)-7H-pyrrolo[2,3-d]pyrimidin-2-yl}-2,2-dimethylpropanamide], for which the “EGFR inhibition improved, fold compared to the corresponding 2-amino analog” value on EGFR is given as 1.4 fold.

For the molecule `CC(C)(C)C(=O)Nc1nc(Nc2ccc(F)c(C(F)(F)F)c2)c2cc(CCc3ccccn3)[nH]c2n1` [Compound 18, N-{4-[(3-trifluoromethyl,4-fluorophenyl)amino]-6-(2-pyridin-2-yl-ethyl)-7H-pyrrolo[2,3-d]pyrimidin-2-yl}-2,2-dimethylpropanamide], the “EGFR inhibition, fold less active than 12” value on EGFR amounted to 1.7 fold.

For `CN(Cc1cnc2nc(N)nc(N)c2n1)c1ccc(C(=O)N[C@@H](CCC(=O)O)C(=O)O)cc1` [MTX, methotrexate], the “B16-F10 primary tumor growth” value in series [3] was “slightly better at inhibiting primary tumor growth as compared to 8”. The “decrease in vascular density of B16-F10 tumors” value in series [3] (compared to solvent treated animals) is listed as “statistically significant”. The tumor volume result in series [3] (compared to untreated animals) was “significantly less increase in tumor volume”.
